Consider one molecule from publication PMC7206119, “RIP1 inhibition blocks inflammatory diseases but not tumor growth or metastases” (Cell Death and Differentiation, 2019).

Structures are written as SMILES.

Holding throughout (experiment): biochemical
Holding throughout (set-up): Thermo Fisher SelectScreen kinase panel: Z'-LYTE and Adapta activity, LanthaScreen binding
In general terms: Time-resolved FRET reads energy transfer from a long-lived donor to a nearby acceptor.

One experiment deals with AKT1 (Homo sapiens, UniProt P31749). The procedure, abridged:
(§1)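 GNE684 profiled at 10 µM across 221 kinases with Z'-LYTE and Adapta activity and LanthaScreen binding formats. Also screened at 10 µM against 468 kinases in KINOMEscan scanMAX binding assay.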

A further experiment concerns the target T1, BRK (Homo sapiens, UniProt Q13882).
T1 construct: gene PTK6
The procedure, abridged: as §1

A further experiment has as its target T2, DNA-PK (Homo sapiens, UniProt P78527).
T2 construct: gene PRKDC
Put shortly:
as §1

The target of the next experiment is EGFR (Homo sapiens, UniProt P00533). Put shortly:
as §1

The target in the next experiment is ERBB2 (Homo sapiens, UniProt P04626). The procedure, abridged: as §1
For the next experiment, the target named is T3, FAK (Homo sapiens, UniProt Q05397).
T3 construct: gene PTK2
Put shortly: as §1

For the next experiment, the target named is FRK (Homo sapiens, UniProt P42685). Put shortly: as §1
Another experiment concerns the target T4, GSK3_beta (Homo sapiens, UniProt P49841).
T4 construct: gene GSK3B
Put shortly:
as §1

For another experiment, the target named is HIPK4 (Homo sapiens, UniProt Q8NE63). The procedure, abridged: as §1
For the next experiment, the target named is IRAK4 (Homo sapiens, UniProt Q9NWZ3). Put shortly: as §1
For another experiment, the target named is JAK2 (Homo sapiens, UniProt O60674). Put shortly: as §1
Sequence of JAK2 (O60674 whole entry): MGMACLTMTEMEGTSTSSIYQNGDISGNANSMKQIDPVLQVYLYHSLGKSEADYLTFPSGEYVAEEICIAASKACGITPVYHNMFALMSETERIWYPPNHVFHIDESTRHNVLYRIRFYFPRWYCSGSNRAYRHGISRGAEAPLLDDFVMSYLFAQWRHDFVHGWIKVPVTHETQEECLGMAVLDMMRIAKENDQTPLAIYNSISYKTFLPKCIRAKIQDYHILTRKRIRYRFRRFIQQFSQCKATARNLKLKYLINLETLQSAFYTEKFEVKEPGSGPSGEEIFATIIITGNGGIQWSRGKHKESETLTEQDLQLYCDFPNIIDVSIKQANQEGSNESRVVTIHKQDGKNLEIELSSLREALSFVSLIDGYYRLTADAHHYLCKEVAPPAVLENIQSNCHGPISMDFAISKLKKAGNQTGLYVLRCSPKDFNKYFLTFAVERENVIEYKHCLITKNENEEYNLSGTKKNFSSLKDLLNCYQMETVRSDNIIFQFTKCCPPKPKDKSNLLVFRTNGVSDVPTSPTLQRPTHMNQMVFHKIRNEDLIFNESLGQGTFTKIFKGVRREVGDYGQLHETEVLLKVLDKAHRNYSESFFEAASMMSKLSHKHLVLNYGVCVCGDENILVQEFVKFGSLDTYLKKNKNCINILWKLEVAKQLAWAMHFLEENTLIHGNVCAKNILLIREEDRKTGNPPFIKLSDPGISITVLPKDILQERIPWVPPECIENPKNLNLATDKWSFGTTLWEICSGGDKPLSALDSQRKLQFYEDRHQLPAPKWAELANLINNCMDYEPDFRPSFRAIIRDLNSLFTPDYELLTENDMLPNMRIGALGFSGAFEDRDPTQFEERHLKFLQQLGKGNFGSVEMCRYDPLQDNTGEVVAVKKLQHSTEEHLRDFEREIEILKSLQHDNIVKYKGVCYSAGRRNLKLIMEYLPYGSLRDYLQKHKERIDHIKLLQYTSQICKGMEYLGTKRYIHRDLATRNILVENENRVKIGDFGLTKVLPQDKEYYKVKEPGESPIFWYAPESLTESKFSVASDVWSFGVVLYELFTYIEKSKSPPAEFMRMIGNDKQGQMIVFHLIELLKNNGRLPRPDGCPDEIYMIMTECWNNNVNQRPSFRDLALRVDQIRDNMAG
For a further experiment, the target named is T5, JNK1_alpha1 (Homo sapiens, UniProt P45983).
T5 construct: gene MAPK8; isoform alpha1
Put shortly: as §1

The next experiment deals with T6, JNK3 (Homo sapiens, UniProt P53779).
T6 construct: gene MAPK10
Put shortly: as §1

For the next experiment, the target named is MAPKAPK3 (Homo sapiens, UniProt Q16644). The procedure, abridged: as §1
Sequence of MAPKAPK3 (Q16644 whole entry): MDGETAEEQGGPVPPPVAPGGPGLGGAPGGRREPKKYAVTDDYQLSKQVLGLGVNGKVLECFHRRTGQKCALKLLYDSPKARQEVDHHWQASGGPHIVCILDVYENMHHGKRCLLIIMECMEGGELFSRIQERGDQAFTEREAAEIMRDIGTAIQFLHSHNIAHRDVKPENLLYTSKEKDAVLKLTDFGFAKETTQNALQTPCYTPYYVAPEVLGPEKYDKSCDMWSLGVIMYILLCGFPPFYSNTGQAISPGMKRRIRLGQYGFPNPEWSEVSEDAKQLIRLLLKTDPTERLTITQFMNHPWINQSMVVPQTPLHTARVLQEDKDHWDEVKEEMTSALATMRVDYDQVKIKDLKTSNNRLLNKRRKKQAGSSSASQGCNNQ
For a further experiment, the target named is MARK3 (Homo sapiens, UniProt P27448). The procedure, abridged:
as §1

The target of the next experiment is T7, MKK6 (Homo sapiens, UniProt P52564).
T7 construct: gene MAP2K6
T7 sequence (P52564 whole entry): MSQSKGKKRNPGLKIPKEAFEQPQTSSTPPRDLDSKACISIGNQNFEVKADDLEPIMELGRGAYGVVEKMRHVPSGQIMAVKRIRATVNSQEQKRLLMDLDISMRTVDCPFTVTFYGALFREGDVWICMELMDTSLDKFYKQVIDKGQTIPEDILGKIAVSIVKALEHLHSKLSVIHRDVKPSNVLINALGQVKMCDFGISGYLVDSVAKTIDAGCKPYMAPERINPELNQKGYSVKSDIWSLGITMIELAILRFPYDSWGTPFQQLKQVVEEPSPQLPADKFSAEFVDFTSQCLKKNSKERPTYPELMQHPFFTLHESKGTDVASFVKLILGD
The procedure, abridged: as §1

The target of another experiment is NEK6 (Homo sapiens, UniProt Q9HC98). The procedure, abridged: as §1
The target of the next experiment is PLK1 (Homo sapiens, UniProt P53350). Put shortly: as §1
The target in a further experiment is PLK3 (Homo sapiens, UniProt Q9H4B4). The procedure, abridged:
as §1

A further experiment deals with T8, PRK1 (Homo sapiens, UniProt Q16512).
T8 construct: gene PKN1
T8 sequence (Q16512 whole entry): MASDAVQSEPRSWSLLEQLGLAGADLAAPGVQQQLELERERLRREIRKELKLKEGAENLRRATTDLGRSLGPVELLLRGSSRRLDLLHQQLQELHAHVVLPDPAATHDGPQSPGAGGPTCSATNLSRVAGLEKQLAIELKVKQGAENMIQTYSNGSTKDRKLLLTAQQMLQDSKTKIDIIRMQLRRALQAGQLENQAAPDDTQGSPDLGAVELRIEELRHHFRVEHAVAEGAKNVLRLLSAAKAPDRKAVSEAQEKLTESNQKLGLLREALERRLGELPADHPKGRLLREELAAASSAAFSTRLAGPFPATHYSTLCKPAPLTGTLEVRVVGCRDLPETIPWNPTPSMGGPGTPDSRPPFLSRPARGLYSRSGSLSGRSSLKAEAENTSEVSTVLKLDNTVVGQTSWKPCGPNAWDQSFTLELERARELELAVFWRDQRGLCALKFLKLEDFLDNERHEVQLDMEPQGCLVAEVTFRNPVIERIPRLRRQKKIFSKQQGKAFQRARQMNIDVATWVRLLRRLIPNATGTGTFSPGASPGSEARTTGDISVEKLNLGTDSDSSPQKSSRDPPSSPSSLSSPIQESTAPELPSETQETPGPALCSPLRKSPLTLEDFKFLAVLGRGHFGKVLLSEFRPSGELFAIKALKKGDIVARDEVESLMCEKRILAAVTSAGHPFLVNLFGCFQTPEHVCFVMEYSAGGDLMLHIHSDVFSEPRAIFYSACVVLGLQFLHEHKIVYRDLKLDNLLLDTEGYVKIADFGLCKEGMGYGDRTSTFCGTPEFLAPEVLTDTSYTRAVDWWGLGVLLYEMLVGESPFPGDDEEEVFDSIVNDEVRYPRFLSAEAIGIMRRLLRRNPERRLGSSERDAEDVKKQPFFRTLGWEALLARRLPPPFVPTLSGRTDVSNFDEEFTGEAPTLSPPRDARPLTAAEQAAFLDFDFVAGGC
Put shortly:
as §1

For a further experiment, the target named is T9, Ron (Homo sapiens, UniProt Q04912).
T9 construct: gene MST1R
Put shortly:
as §1

A further experiment has as its target SGK2 (Homo sapiens, UniProt Q9HBY8). The procedure, abridged: as §1
The target of another experiment is SYK (Homo sapiens, UniProt P43405). Put shortly: as §1

Sequence of AKT1 (P31749 whole entry): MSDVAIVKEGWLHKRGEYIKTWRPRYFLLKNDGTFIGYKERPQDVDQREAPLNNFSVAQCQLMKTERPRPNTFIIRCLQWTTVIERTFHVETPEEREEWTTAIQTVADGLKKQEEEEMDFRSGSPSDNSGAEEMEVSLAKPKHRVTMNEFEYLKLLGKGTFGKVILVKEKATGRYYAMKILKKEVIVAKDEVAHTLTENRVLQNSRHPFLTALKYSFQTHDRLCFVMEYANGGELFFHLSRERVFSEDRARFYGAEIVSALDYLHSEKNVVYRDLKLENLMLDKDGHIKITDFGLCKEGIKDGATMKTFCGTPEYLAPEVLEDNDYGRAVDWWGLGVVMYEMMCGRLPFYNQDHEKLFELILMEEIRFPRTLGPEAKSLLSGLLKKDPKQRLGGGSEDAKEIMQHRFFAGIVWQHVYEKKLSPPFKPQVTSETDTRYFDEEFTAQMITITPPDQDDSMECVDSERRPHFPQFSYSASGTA
T1 sequence (Q13882 whole entry): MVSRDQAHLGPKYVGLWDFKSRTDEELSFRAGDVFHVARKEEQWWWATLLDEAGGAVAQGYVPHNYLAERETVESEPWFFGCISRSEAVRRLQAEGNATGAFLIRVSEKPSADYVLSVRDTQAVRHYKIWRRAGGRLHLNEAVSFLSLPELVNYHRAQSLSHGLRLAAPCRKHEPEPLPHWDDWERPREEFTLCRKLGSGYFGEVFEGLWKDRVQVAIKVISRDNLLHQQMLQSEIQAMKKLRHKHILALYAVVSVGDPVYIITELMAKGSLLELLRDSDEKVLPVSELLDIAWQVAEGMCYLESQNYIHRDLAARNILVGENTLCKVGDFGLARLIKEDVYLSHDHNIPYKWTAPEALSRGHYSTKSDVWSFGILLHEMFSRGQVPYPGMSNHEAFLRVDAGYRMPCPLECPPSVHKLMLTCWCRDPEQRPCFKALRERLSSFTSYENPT
Sequence of EGFR (P00533 whole entry): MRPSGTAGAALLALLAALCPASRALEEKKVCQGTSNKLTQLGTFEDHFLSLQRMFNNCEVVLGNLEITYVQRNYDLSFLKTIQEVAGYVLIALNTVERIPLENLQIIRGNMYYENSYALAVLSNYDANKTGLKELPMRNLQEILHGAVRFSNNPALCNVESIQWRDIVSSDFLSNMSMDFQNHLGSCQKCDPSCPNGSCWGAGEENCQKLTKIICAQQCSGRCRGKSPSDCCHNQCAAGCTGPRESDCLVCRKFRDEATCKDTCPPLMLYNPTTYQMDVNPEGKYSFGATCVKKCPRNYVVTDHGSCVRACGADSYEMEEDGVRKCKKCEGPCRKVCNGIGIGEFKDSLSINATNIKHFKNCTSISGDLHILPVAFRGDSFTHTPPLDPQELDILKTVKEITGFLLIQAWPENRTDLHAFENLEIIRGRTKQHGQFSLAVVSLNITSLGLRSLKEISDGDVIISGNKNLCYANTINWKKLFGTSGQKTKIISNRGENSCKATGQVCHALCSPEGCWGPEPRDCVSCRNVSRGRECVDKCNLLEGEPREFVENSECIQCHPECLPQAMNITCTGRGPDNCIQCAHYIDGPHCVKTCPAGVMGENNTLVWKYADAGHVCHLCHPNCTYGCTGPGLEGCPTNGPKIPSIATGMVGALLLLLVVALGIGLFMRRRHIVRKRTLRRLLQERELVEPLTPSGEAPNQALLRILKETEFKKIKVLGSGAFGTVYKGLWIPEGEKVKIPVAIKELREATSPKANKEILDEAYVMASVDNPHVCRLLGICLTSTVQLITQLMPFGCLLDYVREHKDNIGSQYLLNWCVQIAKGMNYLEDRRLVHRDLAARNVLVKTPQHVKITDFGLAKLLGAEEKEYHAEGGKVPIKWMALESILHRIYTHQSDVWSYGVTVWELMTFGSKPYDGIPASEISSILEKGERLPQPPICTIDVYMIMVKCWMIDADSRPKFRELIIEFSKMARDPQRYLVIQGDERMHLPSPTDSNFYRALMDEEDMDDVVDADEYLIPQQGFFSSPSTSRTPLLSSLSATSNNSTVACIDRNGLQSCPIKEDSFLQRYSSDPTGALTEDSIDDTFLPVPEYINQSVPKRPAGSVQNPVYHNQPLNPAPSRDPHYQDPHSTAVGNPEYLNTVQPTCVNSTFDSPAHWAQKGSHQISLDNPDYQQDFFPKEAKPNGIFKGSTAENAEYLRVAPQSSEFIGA

On to `COc1cc2c(cn1)N(C)C(=O)[C@@H](NC(=O)c1nc3n(n1)[C@H](c1ccccc1)CC3)CC2` [GNE684, (S)-N-((S)-7-methoxy-1-methyl-2-oxo-2,3,4,5-tetrahydro-1H-pyrido[3,4-b]azepin-3-yl)-5-phenyl-6,7-dihydro-5H-pyrrolo[1,2-b][1,2,4]triazole-2-carboxamide], for which the inhibition (commonly the change of the read-out against control, counted positive when it falls) at 10 µM was 2.5% on AKT1; -1% at BRK; 4% at DNA-PK; 2.5% at EGFR; -5.5% at ERBB2; 7.5% on FAK. Moreover, the inhibition at 10 µM at FRK is 4.5%; on GSK3_beta, 5%; on HIPK4 it was 11.5%; on IRAK4, 5%; at JAK2 it was 2.5%; at JNK1_alpha1 it was -5.5%. Also, the inhibition at 10 µM at JNK3 was 3%; on MAPKAPK3, 3%; on MARK3 it was -2.5%; at MKK6, -4.5%; on NEK6, -2%; on PLK1, 4%. Moreover, the inhibition at 10 µM was 5% on PLK3; 2.5% at PRK1; 4.5% at Ron; 5.5% on SGK2; -1.5% on SYK.
